Test results: patent EP1953147A1, “HETEROCYCLIC COMPOUND AND MEDICINAL APPLICATION THEREOF” (priority 2005, dated 2007)

Tested on: ΔG/SEAP/HCV E1E2
Assay: Effect of test substance on cell infection with HCV pseudotype virus (SEAP reporter assay in HepG2 cells)
Format: cell-based
Settings: Hepatitis C virus

| Structure (SMILES) | IC50 [nM] |
| --- | --- |
| Cc1cccc(-c2nn(-c3cc(N4CC[C@H](O)C4)ccc3C(F)(F)F)c(=O)c3c2CCC3)c1 [Example 64, 2-[5-((S)-3-hydroxy-pyrrolidin-1-yl)-2-trifluoromethyl-phenyl]-4-m-tolyl-2,5,6,7-tetrahydro-cyclopenta[d]pyridazin-1-one] | < 100 |
| O=c1c2c(c(-c3cccc(F)c3)nn1-c1cc(N3CC[C@H](O)C3)ccc1C(F)(F)F)CCC2 [Example 65, 4-(3-fluoro-phenyl)-2-[5-((S)-3-hydroxy-pyrrolidin-1-yl)-2-trifluoromethyl-phenyl]-2,5,6,7-tetrahydro-cyclopenta[d]pyridazin-1-one] | < 100 |
| O=c1c2c(c(-c3ccccc3)nn1-c1cc(N3CC[C@H](O)C3)ccc1C(F)(F)F)CCC2 [Example 66, 2-[5-((S)-3-hydroxy-pyrrolidin-1-yl)-2-trifluoromethyl-phenyl]-4-phenyl-2,5,6,7-tetrahydro-cyclopenta[d]pyridazin-1-one] | < 100 |
| CCNc1ccc(C(F)(F)F)c(-n2nc(-c3cc(OC)cc(OC)c3)c3c(c2=O)CCC3)c1 [Example 67, 4-(3,5-dimethoxy-phenyl)-2-(5-ethylamino-2-trifluoromethyl-phenyl)-2,5,6,7-tetrahydro-cyclopenta[d]pyridazin-1-one] | < 100 |
| CCN(C)c1ccc(C(F)(F)F)c(-n2nc(-c3cc(OC)cc(OC)c3)c3c(c2=O)CCC3)c1 [Example 68, 4-(3,5-dimethoxy-phenyl)-2-[5-(ethyl-methylamino)-2-trifluoromethyl-phenyl]-2,5,6,7-tetrahydro-cyclopenta[d]pyridazin-1-one] | < 100 |
| COc1cc(OC)cc(-c2nn(-c3cc(OC)ccc3C(F)(F)F)c(=O)c3c2CCC3)c1 [Example 69, 4-(3,5-dimethoxy-phenyl)-2-(5-methoxy-2-trifluoromethyl-phenyl)-2,5,6,7-tetrahydro-cyclopenta[d]pyridazin-1-one] | < 100 |
| COc1cc(OC)cc(-c2nn(-c3cc(N4CCOCC4)ccc3C(F)(F)F)c(=O)c3c2CCC3)c1 [Example 70, 4-(3,5-dimethoxy-phenyl)-2-(5-morpholin-4-yl-2-trifluoromethyl-phenyl)-2,5,6,7-tetrahydro-cyclopenta[d]pyridazin-1-one] | < 100 |
| COc1cc(OC)cc(-c2nn(-c3cc(N4CCC4)ccc3C(F)(F)F)c(=O)c3c2CCC3)c1 [Example 71, 2-(5-azetidin-1-yl-2-trifluoromethyl-phenyl)-4-(3,5-dimethoxy-phenyl)-2,5,6,7-tetrahydro-cyclopenta[d]pyridazin-1-one] | < 100 |
| O=c1c2c(c(-c3cccc(Cl)c3)nn1-c1cc(N3CC[C@H](O)C3)ccc1C(F)(F)F)CCC2 [Example 72, 4-(3-chloro-phenyl)-2-[5-((S)-3-hydroxy-pyrrolidin-1-yl)-2-trifluoromethyl-phenyl]-2,5,6,7-tetrahydro-cyclopenta[d]pyridazin-1-one] | < 100 |
| O=c1c2c(c(-c3cccc(Br)c3)nn1-c1cc(N3CC[C@H](O)C3)ccc1C(F)(F)F)CCC2 [Example 73, 4-(3-bromo-phenyl)-2-[5-((S)-3-hydroxy-pyrrolidin-1-yl)-2-trifluoromethyl-phenyl]-2,5,6,7-tetrahydro-cyclopenta[d]pyridazin-1-one] | < 100 |
| O=c1c2c(c(-c3cccc(C(F)(F)F)c3)nn1-c1cc(N3CC[C@H](O)C3)ccc1C(F)(F)F)CCC2 [Example 74, 2-[5-((S)-3-hydroxy-pyrrolidin-1-yl)-2-trifluoromethyl-phenyl]-4-(3-trifluoromethyl-phenyl)-2,5,6,7-tetrahydro-cyclopenta[d]pyridazin-1-one] | < 100 |
| O=c1c2c(c(-c3ccc(C(F)(F)F)cc3)nn1-c1cc(N3CC[C@H](O)C3)ccc1C(F)(F)F)CCC2 [Example 75, 2-[5-((S)-3-hydroxy-pyrrolidin-1-yl)-2-trifluoromethyl-phenyl]-4-(4-trifluoromethyl-phenyl)-2,5,6,7-tetrahydro-cyclopenta[d]pyridazin-1-one] | 100 to 10000 |
| O=c1c2c(c(-c3ccc(F)cc3)nn1-c1cc(N3CC[C@H](O)C3)ccc1C(F)(F)F)CCC2 [Example 76, 4-(4-fluoro-phenyl)-2-[5-((S)-3-hydroxy-pyrrolidin-1-yl)-2-trifluoromethyl-phenyl]-2,5,6,7-tetrahydro-cyclopenta[d]pyridazin-1-one] | < 100 |
| COc1ccc(-c2nn(-c3cc(N4CC[C@H](O)C4)ccc3C(F)(F)F)c(=O)c3c2CCC3)cc1 [Example 77, 2-[5-((S)-3-hydroxy-pyrrolidin-1-yl)-2-trifluoromethyl-phenyl]-4-(4-methoxy-phenyl)-2,5,6,7-tetrahydro-cyclopenta[d]pyridazin-1-one] | < 100 |
| O=c1c2c(c(-c3ccc(Cl)cc3)nn1-c1cc(N3CC[C@H](O)C3)ccc1C(F)(F)F)CCC2 [Example 78, 4-(4-chloro-phenyl)-2-[5-((S)-3-hydroxy-pyrrolidin-1-yl)-2-trifluoromethyl-phenyl]-2,5,6,7-tetrahydro-cyclopenta[d]pyridazin-1-one] | < 100 |
| O=C(O)c1cccc(-c2nn(-c3cc(N4CC[C@H](O)C4)ccc3C(F)(F)F)c(=O)c3c2CCC3)c1 [Example 79, 3-{3-[5-((S)-3-hydroxy-pyrrolidin-1-yl)-2-trifluoromethyl-phenyl]-4-oxo-4,5,6,7-tetrahydro-3H-cyclopenta[d]pyridazin-1-yl}-benzoic acid] | 100 to 10000 |

| Structure (SMILES) | IC50 [nM] |
| --- | --- |
| O=C(O)c1ccc(-c2nn(-c3cc(N4CC[C@H](O)C4)ccc3C(F)(F)F)c(=O)c3c2CCC3)cc1 [Example 80, 4-{3-[5-((S)-3-hydroxy-pyrrolidin-1-yl)-2-trifluoromethyl-phenyl]-4-oxo-4,5,6,7-tetrahydro-3H-cyclopenta[d]pyridazin-1-yl}-benzoic acid] | 100 to 10000 |
| COc1cc(OC)cc(-c2nn(-c3cc(N(C)C)ccc3C(F)(F)F)c(=O)c3c2CCC3)c1 [Example 81, 4-(3,5-dimethoxy-phenyl)-2-(5-dimethylamino-2-trifluoromethyl-phenyl)-2,5,6,7-tetrahydro-cyclopenta[d]pyridazin-1-one] | < 100 |
| CNc1ccc(C(F)(F)F)c(-n2nc(-c3cc(OC)cc(OC)c3)c3c(c2=O)CCC3)c1 [Example 82, 4-(3,5-dimethoxy-phenyl)-2-(5-methylamino-2-trifluoromethyl-phenyl)-2,5,6,7-tetrahydro-cyclopenta[d]pyridazin-1-one] | < 100 |
| COc1cc(OC)cc(-c2nn(-c3cc(NC(=O)CO)ccc3C(F)(F)F)c(=O)c3c2CCC3)c1 [Example 83, N-{3-[4-(3,5-dimethoxy-phenyl)-1-oxo-1,5,6,7-tetrahydro-cyclopenta[d]pyridazin-2-yl]-4-trifluoromethyl-phenyl}-2-hydroxy-acetamide] | < 100 |
| CCCC(=O)Nc1ccc(C(F)(F)F)c(-n2nc(-c3cc(OC)cc(OC)c3)c3c(c2=O)CCC3)c1 [Example 84, N-{3-[4-(3,5-dimethoxy-phenyl)-1-oxo-1,5,6,7-tetrahydro-cyclopenta[d]pyridazin-2-yl]-4-trifluoromethyl-phenyl}-butyramide] | < 100 |
| CN(C)c1cccc(-c2nn(-c3cc(N4CC[C@H](O)C4)ccc3C(F)(F)F)c(=O)c3c2CCC3)c1 [Example 85, 4-(3-dimethylamino-phenyl)-2-[5-((S)-3-hydroxy-pyrrolidin-1-yl)-2-trifluoromethyl-phenyl]-2,5,6,7-tetrahydro-cyclopenta[d]pyridazin-1-one] | < 100 |
| COc1cc(OC)cc(-c2nn(-c3ccccc3Cl)c(=O)c3c2CCC3)c1 [Example 86, 2-(2-chloro-phenyl)-4-(3,5-dimethoxy-phenyl)-2,5,6,7-tetrahydro-cyclopenta[d]pyridazin-1-one] | 100 to 10000 |
| COc1cc(OC)cc(-c2nn(-c3c(Cl)cccc3Cl)c(=O)c3c2CCC3)c1 [Example 87, 2-(2,6-dichloro-phenyl)-4-(3,5-dimethoxy-phenyl)-2,5,6,7-tetrahydro-cyclopenta[d]pyridazin-1-one] | < 100 |
| COc1cc(OC)cc(-c2nn(-c3cc(C)ccc3C(F)(F)F)c(=O)c3c2CCC3)c1 [Example 88, 4-(3,5-dimethoxy-phenyl)-2-(5-methyl-2-trifluoromethyl-phenyl)-2,5,6,7-tetrahydro-cyclopenta[d]pyridazin-1-one] | < 100 |
| CCc1ccc(C(F)(F)F)c(-n2nc(-c3cc(OC)cc(OC)c3)c3c(c2=O)CCC3)c1 [Example 89, 4-(3,5-dimethoxy-phenyl)-2-(5-ethyl-2-trifluoromethyl-phenyl)-2,5,6,7-tetrahydro-cyclopenta[d]pyridazin-1-one] | < 100 |
| O=c1c2c(c(-c3ccc(Br)cc3)nn1-c1cc(N3CC[C@H](O)C3)ccc1C(F)(F)F)CCC2 [Example 90, 4-(4-bromo-phenyl)-2-[5-((S)-3-hydroxy-pyrrolidin-1-yl)-2-trifluoromethyl-phenyl]-2,5,6,7-tetrahydro-cyclopenta[d]pyridazin-1-one] | < 100 |
| COc1cc(OC)cc(-c2nn(-c3cc(NCCO)ccc3C(F)(F)F)c(=O)c3c2CCC3)c1 [Example 91, 4-(3,5-dimethoxy-phenyl)-2-[5-(2-hydroxy-ethylamino)-2-trifluoromethyl-phenyl]-2,5,6,7-tetrahydro-cyclopenta[d]pyridazin-1-one] | < 100 |
| COc1cc(OC)cc(-c2nn(-c3cc(N(C)CCO)ccc3C(F)(F)F)c(=O)c3c2CCC3)c1 [Example 92, 4-(3,5-dimethoxy-phenyl)-2-{5-[(2-hydroxy-ethyl)-methyl-amino]-2-trifluoromethyl-phenyl}-2,5,6,7-tetrahydro-cyclopenta[d]pyridazin-1-one] | < 100 |
| COc1cc(-c2nn(-c3cc(N4CC[C@H](O)C4)ccc3C(F)(F)F)c(=O)c3c2CCC3)ccn1 [Example 93, 2-[5-((S)-3-hydroxy-pyrrolidin-1-yl)-2-trifluoromethyl-phenyl]-4-(2-methoxy-pyridin-4-yl)-2,5,6,7-tetrahydro-cyclopenta[d]pyridazin-1-one] | 100 to 10000 |
| COc1cc(OC)cc(-c2nn(-c3cc(NCC(=O)OC(C)(C)C)ccc3C(F)(F)F)c(=O)c3c2CCC3)c1 [Example 94, {3-[4-(3,5-dimethoxy-phenyl)-1-oxo-1,5,6,7-tetrahydro-cyclopenta[d]pyridazin-2-yl]-4-trifluoromethyl-phenylamino}-acetic acid tert-butyl ester] | 100 to 10000 |
